IC50 data for 17 compounds are collected here from patent US20140005163A1 (NOVARTIS AG, priority 2010, published 2014).

One experiment deals with T1, PI3K alpha (Homo sapiens, UniProt P42336).
T1 construct: p85(iSH2) fusion partner (see partner chain) (N); His tag (C); made in house; host or cells: baculovirus; Tn5 (Trichoplusia ni) or TiniPro insect cells
The experiment is described as follows: PI3K alpha kinase assay (Kinase-Glo luminescence). In kind it is biochemical. Summed up: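 Compounds are titrated at 8 concentrations and mixed with PI3Kα protein (EMV B1075, 10 nM) in phosphatidylinositol (10 μg/mL). ATP at 1 μM starts the 60-minute room-temperature reaction, which is stopped with Kinase-Glo before luminescence reading. Four-parameter curve fitting gives IC50.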

The next experiment addresses T2, PI3K gamma (Homo sapiens, UniProt P48736).
T2 construct: His tag (C); made in house; host or cells: baculovirus (pVL1393); Tn5 or TiniPro insect cells; construct from Roger Williams lab, MRC LMB
The experiment is described as follows: PI3K gamma kinase assay (Kinase-Glo luminescence). The class given is biochemical. The procedure, abridged:
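PI3Kγ (150 nM) reaction run 120 min at room temperature with phosphatidylinositol substrate (10 μg/mL) and ATP (1 μM) in Tris pH 7.5 buffer containing MgCl2, NaCl, CHAPS and DTT. Remaining ATP detected by Kinase-Glo luminescence; 8 concentrations per compound, IC50 from 4-parameter curve fitting.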

Another experiment deals with T3, mTOR (Homo sapiens, UniProt P42345).
T3 construct: purchased Invitrogen Corporation (Carlsbad/CA, USA) PV4753
T3 sequence (P42345 1360-2549 limits assumed): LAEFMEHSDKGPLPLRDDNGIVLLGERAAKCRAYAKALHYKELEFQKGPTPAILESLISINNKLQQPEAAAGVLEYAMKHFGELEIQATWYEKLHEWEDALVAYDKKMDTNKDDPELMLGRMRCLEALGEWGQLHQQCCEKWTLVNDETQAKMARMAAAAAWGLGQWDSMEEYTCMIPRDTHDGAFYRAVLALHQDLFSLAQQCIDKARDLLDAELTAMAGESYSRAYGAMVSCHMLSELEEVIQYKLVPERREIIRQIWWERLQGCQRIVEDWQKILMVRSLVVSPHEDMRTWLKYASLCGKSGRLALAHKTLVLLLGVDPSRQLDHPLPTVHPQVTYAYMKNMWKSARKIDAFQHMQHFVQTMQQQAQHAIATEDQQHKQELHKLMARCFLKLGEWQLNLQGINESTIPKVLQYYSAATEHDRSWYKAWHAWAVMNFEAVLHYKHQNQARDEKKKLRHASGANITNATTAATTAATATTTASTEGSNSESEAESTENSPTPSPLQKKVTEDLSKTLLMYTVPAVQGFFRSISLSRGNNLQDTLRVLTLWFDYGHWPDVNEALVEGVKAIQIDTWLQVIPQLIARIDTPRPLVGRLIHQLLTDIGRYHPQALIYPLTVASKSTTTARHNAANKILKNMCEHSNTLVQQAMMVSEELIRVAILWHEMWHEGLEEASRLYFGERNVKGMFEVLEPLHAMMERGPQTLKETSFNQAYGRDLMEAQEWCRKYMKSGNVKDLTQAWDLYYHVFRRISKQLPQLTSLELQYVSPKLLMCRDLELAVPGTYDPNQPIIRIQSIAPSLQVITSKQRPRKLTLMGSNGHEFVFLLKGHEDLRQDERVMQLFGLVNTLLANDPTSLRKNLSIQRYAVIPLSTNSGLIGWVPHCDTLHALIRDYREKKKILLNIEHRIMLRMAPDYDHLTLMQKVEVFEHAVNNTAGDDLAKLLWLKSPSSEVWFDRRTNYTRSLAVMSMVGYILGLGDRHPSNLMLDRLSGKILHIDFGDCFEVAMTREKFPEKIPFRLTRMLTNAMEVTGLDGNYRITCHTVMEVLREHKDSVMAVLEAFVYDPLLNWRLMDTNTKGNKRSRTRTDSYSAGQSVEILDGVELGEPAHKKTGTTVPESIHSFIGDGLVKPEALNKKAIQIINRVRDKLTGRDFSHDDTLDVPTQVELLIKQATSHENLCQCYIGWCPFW
The experiment is described as follows: Biochemical assay for m-TOR by TR-FRET. The settings on record: 8 μM ATP, 400 nM GFP-4EBP1, 0.5 nM mTOR. The procedure, abridged:
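Enzyme 0.5 nM, GFP-4EBP1 400 nM, ATP 8 μM (all final); 50 mM HEPES pH 7.5, 10 mM MnCl2, 1 mM DTT; rt. Detection: Tb-α-p4EBP1 [pT46] 0.5 nM in EDTA, TR-FRET, 15 min. Reference compound on every plate, 16-point duplicate dilutions.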

In another experiment the target is T4, PI3K delta (Homo sapiens, UniProt O00329).
T4 construct: for the full-length p110-d subunit are generated and fused by overlapping PCR; p85(iSH2) fusion partner (see partner chain) (N); His tag (C); made in house; host or cells: baculovirus; Tn5 (Trichoplusia ni) or TiniPro insect cells
T4 sequence (O00329 with tags, fused parts or gaps limits assumed): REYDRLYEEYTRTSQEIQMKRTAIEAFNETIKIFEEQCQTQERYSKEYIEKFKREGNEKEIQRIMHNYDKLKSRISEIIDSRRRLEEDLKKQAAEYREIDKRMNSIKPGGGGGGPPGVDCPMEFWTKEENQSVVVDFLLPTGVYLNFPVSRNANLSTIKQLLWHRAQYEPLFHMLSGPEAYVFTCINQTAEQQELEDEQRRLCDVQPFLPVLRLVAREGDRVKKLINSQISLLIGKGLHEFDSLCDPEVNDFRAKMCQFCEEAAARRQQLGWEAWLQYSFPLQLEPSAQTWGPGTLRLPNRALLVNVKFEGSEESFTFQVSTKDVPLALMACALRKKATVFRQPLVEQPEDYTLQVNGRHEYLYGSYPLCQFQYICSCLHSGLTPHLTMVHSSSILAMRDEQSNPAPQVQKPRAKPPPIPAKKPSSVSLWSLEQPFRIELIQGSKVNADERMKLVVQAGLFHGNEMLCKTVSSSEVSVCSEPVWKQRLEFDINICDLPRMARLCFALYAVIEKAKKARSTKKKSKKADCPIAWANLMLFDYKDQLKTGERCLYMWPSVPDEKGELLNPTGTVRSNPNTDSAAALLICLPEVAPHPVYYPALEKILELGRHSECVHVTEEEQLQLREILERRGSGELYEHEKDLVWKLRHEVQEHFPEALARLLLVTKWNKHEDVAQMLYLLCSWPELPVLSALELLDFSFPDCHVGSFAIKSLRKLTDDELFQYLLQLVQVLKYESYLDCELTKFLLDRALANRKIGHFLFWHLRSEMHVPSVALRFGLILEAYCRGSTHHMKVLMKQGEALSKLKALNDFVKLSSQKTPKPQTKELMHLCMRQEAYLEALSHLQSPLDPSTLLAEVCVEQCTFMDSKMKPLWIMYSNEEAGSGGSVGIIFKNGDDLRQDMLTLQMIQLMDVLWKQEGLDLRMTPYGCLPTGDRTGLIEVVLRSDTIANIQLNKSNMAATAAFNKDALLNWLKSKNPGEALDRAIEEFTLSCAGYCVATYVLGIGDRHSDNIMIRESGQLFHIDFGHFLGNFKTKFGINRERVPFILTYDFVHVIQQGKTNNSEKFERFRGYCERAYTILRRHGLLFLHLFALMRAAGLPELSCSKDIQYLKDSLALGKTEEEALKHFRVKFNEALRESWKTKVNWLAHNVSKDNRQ
As to the kind of experiment: PI3K delta kinase assay (Kinase-Glo luminescence). The class given is biochemical. The procedure, abridged: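 ATP 1 μM, PI 10 μg/mL, PI3Kδ construct BV1060 10 nM (final); 10 mM Tris pH 7.5, 3 mM MgCl2, 50 mM NaCl, 0.05% CHAPS, 1 mM DTT; 60 min RT; Kinase-Glo stop, luminescence.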

Experiment [1] relates to S6 Ribosomal Protein phosphorylation Ser235/236 in TSC1 null mouse embryo fibroblast (MEF) cells. The experiment is described as follows: Reverse protein array assay, S6 Ribosomal Protein phosphorylation Ser235/236 in TSC1 null MEF cells. The class given is cell-based. The settings on record: 1 h, pS6 ribosomal protein Ser235/236, 60 minutes incubation, read-out: p-S6 IC50. The procedure, abridged: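 TSC1−/− MEFs, seeded and held ≥20 h at 37 °C/5% CO2, were exposed to 8-step serial compound dilutions (0.02% DMSO final; DMSO vehicle control) for 60 min at 37 °C. Cells were then lysed on ice for 10 min and lysates spotted onto reverse protein array chips.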

T1 sequence (P42336 with tags, fused parts or gaps limits assumed): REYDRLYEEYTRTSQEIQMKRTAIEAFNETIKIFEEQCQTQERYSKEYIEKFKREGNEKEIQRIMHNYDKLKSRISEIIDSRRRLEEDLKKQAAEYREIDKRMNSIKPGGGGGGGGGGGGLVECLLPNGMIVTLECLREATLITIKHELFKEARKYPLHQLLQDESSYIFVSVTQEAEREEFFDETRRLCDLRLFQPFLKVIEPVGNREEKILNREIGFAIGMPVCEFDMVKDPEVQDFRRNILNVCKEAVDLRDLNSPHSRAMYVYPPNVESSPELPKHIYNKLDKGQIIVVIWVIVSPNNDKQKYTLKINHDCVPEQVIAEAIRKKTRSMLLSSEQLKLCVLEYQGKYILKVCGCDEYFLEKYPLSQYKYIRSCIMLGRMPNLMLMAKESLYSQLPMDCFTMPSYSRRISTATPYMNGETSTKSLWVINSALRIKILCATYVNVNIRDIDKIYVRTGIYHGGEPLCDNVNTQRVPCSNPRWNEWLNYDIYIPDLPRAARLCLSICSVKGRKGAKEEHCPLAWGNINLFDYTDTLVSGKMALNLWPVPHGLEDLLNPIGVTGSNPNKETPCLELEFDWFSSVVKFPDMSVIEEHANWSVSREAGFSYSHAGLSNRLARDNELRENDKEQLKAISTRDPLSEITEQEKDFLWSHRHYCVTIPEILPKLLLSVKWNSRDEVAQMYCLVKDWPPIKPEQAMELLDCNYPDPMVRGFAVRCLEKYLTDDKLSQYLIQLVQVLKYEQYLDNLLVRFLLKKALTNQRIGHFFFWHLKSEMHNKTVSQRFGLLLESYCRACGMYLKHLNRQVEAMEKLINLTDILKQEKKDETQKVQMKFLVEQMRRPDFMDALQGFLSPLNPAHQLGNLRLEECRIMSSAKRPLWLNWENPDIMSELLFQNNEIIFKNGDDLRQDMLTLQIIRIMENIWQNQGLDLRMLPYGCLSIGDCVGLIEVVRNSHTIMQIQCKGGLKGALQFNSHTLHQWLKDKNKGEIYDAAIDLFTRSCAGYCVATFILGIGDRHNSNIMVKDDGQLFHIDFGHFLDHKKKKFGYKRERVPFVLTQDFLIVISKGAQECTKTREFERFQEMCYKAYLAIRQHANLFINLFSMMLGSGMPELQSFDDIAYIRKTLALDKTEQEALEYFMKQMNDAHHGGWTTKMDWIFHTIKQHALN
T2 sequence (P48736 144-1102 limits assumed): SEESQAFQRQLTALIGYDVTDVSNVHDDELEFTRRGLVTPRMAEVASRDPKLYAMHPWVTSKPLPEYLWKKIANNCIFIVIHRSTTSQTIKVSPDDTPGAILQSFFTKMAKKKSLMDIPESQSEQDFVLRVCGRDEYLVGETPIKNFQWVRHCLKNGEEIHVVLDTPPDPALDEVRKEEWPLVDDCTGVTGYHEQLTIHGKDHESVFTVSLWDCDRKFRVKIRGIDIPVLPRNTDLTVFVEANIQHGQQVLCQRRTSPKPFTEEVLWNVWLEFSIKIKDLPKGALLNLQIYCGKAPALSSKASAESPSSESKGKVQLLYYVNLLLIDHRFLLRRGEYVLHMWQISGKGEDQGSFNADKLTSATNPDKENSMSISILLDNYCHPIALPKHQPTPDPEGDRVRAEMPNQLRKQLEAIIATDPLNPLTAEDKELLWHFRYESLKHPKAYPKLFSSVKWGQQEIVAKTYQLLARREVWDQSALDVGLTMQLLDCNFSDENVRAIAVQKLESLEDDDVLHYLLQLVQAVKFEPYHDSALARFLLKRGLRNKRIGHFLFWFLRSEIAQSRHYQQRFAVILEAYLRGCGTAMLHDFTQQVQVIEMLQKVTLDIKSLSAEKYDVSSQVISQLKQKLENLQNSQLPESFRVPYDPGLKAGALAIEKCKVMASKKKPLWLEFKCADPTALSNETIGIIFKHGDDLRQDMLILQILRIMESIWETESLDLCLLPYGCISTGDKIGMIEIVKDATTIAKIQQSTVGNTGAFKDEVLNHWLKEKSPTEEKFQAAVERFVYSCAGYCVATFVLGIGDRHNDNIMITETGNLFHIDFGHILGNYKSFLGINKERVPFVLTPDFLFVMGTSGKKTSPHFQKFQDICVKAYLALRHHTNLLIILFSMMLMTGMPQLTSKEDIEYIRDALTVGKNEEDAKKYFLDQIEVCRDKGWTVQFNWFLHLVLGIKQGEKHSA

`COc1ccc(-c2ccc3ncc4c(c3c2)n(-c2ccnn2C)c(=O)n4C)cc1OC` [Example 1.3, 8-(3,4-Dimethoxy-phenyl)-3-methyl-1-(2-methyl-2H-pyrazol-3-yl)-1,3-dihydro-imidazo[4,5-c]quinolin-2-one]: the concentration for half-maximal inhibition (IC50) at PI3K alpha stood at 14 nM; at PI3K gamma, 540 nM; at mTOR it was 132 nM; on PI3K delta it was 12 nM.
For the compound `COc1ccc(-c2ccc3ncc4c(c3c2)n(-c2cn(C)nc2C)c(=O)n4C)cc1OC` [Example 1.8, 8-(3,4-Dimethoxy-phenyl)-1-(1,3-dimethyl-1H-pyrazol-4-yl)-3-methyl-1,3-dihydro-imidazo[4,5-c]quinolin-2-one], the IC50 at PI3K alpha is 6 nM; on PI3K gamma, 144 nM; on mTOR it was 6 nM; on PI3K delta it was 5 nM; in experiment [1], below 5 nM.
Take `COc1ccc(-c2ccc3ncc4c(c3c2)n(-c2cn(C(C)C)nc2C)c(=O)n4C)cn1` [Example 2.8, 1-(1-Isopropyl-3-methyl-1H-pyrazol-4-yl)-8-(6-methoxy-pyridin-3-yl)-3-methyl-1,3-dihydro-imidazo[4,5-c]quinolin-2-one]: the IC50 was found to be 29 nM at PI3K alpha; 205 nM at PI3K gamma; 33 nM on mTOR; 15 nM at PI3K delta; 21 nM in experiment [1].
Take `CCOc1ccc(-c2ccc3ncc4c(c3c2)n(-c2cn(CC)nc2C)c(=O)n4C)cn1` [Example 3.5, 8-(6-Ethoxy-pyridin-3-yl)-1-(1-ethyl-3-methyl-1H-pyrazol-4-yl)-3-methyl-1,3-dihydro-imidazo[4,5-c]quinolin-2-one]: the IC50 amounted to 37 nM on PI3K alpha; 357 nM at PI3K gamma; 17 nM on mTOR; 40 nM on PI3K delta; 58 nM in experiment [1].
Consider `COCCOc1ccc(-c2ccc3ncc4c(c3c2)n(-c2cn(C)nc2C)c(=O)n4C)cn1` [Example 18, 1-(1,3-Dimethyl-1H-pyrazol-4-yl)-8-[6-(2-methoxy-ethoxy)-pyridin-3-yl]-3-methyl-1,3-dihydro-imidazo[4,5-c]quinolin-2-one], for which the IC50 at PI3K alpha was found to be 86 nM; at PI3K gamma, 397 nM; on mTOR, 123 nM; at PI3K delta, 115 nM.
On the same counts, the results for `CCOc1cc(-c2ccc3ncc4c(c3c2)n(-c2c(C)nn(C)c2C)c(=O)n4C)ccc1OC` [Example 28.2, 8-(3-Ethoxy-4-methoxy-phenyl)-3-methyl-1-(1,3,5-trimethyl-1H-pyrazol-4-yl)-1,3-dihydro-imidazo[4,5-c]quinolin-2-one] are 62 nM, 174 nM, 549 nM and 53 nM.
Take `COc1ncc(-c2ccc3ncc4c(c3c2)n(-c2cn(C)nc2C)c(=O)n4C)cc1[N+](=O)[O-]` [Example 66, 1-(1,3-dimethyl-1H-pyrazol-4-yl)-8-(6-methoxy-5-nitro-pyridin-3-yl)-3-methyl-1,3-dihydro-imidazo[4,5-c]quinolin-2-one]: the IC50 on PI3K alpha amounted to 36 nM; on PI3K gamma, 356 nM; at mTOR it was 207 nM; on PI3K delta it was 19 nM.
As for `Cc1nn(C)cc1-n1c(=O)n(C)c2cnc3ccc(-c4cncc(N(C)S(C)(=O)=O)c4)cc3c21` [Example 121, N-{5-[1-(1,3-Dimethyl-1H-pyrazol-4-yl)-3-methyl-2-oxo-2,3-dihydro-1H-imidazo[4,5-c]quinolin-8-yl]-pyridin-3-yl}-N-methyl-methanesulfonamide], the IC50 at PI3K alpha came to 19 nM; on PI3K gamma, 184 nM; on mTOR, 91 nM; on PI3K delta, 18 nM.
In the case of `CCn1cc(-n2c(=O)n(C)c3cnc4ccc(-c5cnc(COC)c(OC)c5)cc4c32)c(C)n1` [Example 195.3, 1-(1-Ethyl-3-methyl-1H-pyrazol-4-yl)-8-(5-methoxy-6-methoxymethyl-pyridin-3-yl)-3-methyl-1,3-dihydro-imidazo[4,5-c]quinolin-2-one], the IC50 turned out to be 48 nM on PI3K alpha, 76 nM on mTOR, 34 nM at PI3K delta and 31 nM in experiment [1].
Consider `[2H]C([2H])([2H])OCc1ncc(-c2ccc3ncc4c(c3c2)n(-c2cn(C)nc2Cl)c(=O)n4C)cc1OC` [Example 199, 1-(3-Chloro-1-methyl-1H-pyrazol-4-yl)-8-(5-methoxy-6-trideuteromethoxymethyl-pyridin-3-yl)-3-methyl-1,3-dihydro-imidazo[4,5-c]quinolin-2-one], for which the IC50 at PI3K alpha worked out at 15 nM; at mTOR it was 12 nM; at PI3K delta, 5 nM; in experiment [1], 2 nM.
Consider `COCc1cc(-c2ccc3ncc4c(c3c2)n(-c2cn(C)nc2C)c(=O)n4C)cnc1OC` [Example 202, 1-(1,3-Dimethyl-1H-pyrazol-4-yl)-8-(6-methoxy-5-methoxymethyl-pyridin-3-yl)-3-methyl-1,3-dihydro-imidazo[4,5-c]quinolin-2-one], for which the IC50 at PI3K alpha is 11 nM; at mTOR, 29 nM; on PI3K delta it was 6 nM; in experiment [1], 1 nM.
With `Cc1nn(C)cc1-n1c(=O)n(C)c2cnc3ccc(-c4cnc5c(c4)OCCN5C)cc3c21` [Example 209, 1-(1,3-Dimethyl-1H-pyrazol-4-yl)-3-methyl-8-(4-methyl-3,4-dihydro-2H-pyrido[3,2-b][1,4]oxazin-7-yl)-1,3-dihydro-imidazo[4,5-c]quinolin-2-one], the IC50 was found to be 6 nM on PI3K alpha, 21 nM on mTOR, 9 nM at PI3K delta and 2 nM in experiment [1].
As for `Cc1nn(C)cc1-n1c(=O)n(C)c2cnc3ccc(-c4cncc(C(C)(C)O)c4)cc3c21` [Example 215.2, 1-(1,3-Dimethyl-1H-pyrazol-4-yl)-8-[5-(1-hydroxy-1-methyl-ethyl)-pyridin-3-yl]-3-methyl-1,3-dihydro-imidazo[4,5-c]quinolin-2-one], the IC50 at PI3K alpha stood at 14 nM; at mTOR, 9 nM; on PI3K delta, 11 nM; in experiment [1], 3 nM.
With `Cc1nn(C)cc1-n1c(=O)n(C)c2cnc3ccc(-c4cncc(C5(O)CCCC5)c4)cc3c21` [Example 218, 1-(1,3-Dimethyl-1H-pyrazol-4-yl)-8-[5-(1-hydroxy-cyclopentyl)-pyridin-3-yl]-3-methyl-1,3-dihydro-imidazo[4,5-c]quinolin-2-one], the half-maximal inhibitory concentration (IC50) was 13 nM at PI3K alpha, 41 nM on mTOR, 6 nM on PI3K delta and below 0.5 nM in experiment [1].
With `Cc1nn(C)cc1-n1c(=O)n(C)c2cnc3ccc(-c4cncc(C(C)(C)C#N)c4)cc3c21` [Example 220.1, 2-{5-[1-(1,3-Dimethyl-1H-pyrazol-4-yl)-3-methyl-2-oxo-2,3-dihydro-1H-imidazo[4,5-c]quinolin-8-yl]-pyridin-3-yl}-2-methyl-propionitrile], the IC50 at PI3K alpha came to 9 nM; on mTOR, 27 nM; at PI3K delta, 8 nM; in experiment [1], 1 nM.
Regarding `CNC(=O)c1cc(-c2ccc3ncc4c(c3c2)n(-c2cn(C(C)C)nc2C)c(=O)n4C)cnc1N` [Example 224.2, 2-Amino-5-[1-(1-isopropyl-3-methyl-1H-pyrazol-4-yl)-3-methyl-2-oxo-2,3-dihydro-1H-imidazo[4,5-c]quinolin-8-yl]-N-methyl-nicotinamide], the IC50 on PI3K alpha came out at 93 nM; at mTOR, 24 nM; at PI3K delta, 41 nM; in experiment [1], 20 nM.
With `COc1ncc(-c2ccc3ncc4c(c3c2)n(-c2cn(C)nc2C)c(=O)n4C)c(OC)n1` [Example 234.2, 8-(2,4-Dimethoxy-pyrimidin-5-yl)-1-(1,3-dimethyl-1H-pyrazol-4-yl)-3-methyl-1,3-dihydro-imidazo[4,5-c]quinolin-2-one], the IC50 at PI3K alpha was below 3 nM; on mTOR, 10 nM; on PI3K delta it was below 3 nM; in experiment [1], 1 nM.
